From PMC8467340, “Fine Tuning of Cholinesterase and Glutathione-S-Transferase Activities by Organoruthenium(II) Complexes” (Biomedicines, 2021)
Where two headings read alike, the source gives them in different places.

Columns and labels:
[1] = target: T1, electric eel AChE (eeAChE) (Electrophorus electricus, UniProt O42275); settings: previously reported; read-out: Enzyme Inhibition eeAChE IC50; cited from earlier work
T1 construct: purchased Sigma-Aldrich

[2] = target: T2, human recombinant AChE (hrAChE) (Homo sapiens, UniProt P22303); settings: previously reported; read-out: Enzyme Inhibition hrAChE IC50; cited from earlier work
T2 construct: purchased Sigma-Aldrich

[3] = target: T3, horse serum BChE (hsBChE) (Equus caballus, UniProt P81908); settings: previously reported; read-out: Enzyme Inhibition hsBChE IC50; cited from earlier work
T3 construct: horse serum BChE (hsBChE); purchased Sigma-Aldrich; host or cells: horse serum

horse liver GST (hlGST) [4] = settings: previously reported, cited from earlier work; for IC50: read-out: Enzyme Inhibition hlGST IC50
[5] = target: T4, human placenta GST (hGST) (Homo sapiens, UniProt P09211); settings: previously reported; read-out: Enzyme Inhibition hGST IC50; cited from earlier work
T4 construct: human placenta GST (hGST); purchased Sigma-Aldrich; host or cells: human placenta

[6] = target: T1, electric eel AChE (eeAChE); assay: Cholinesterase inhibition assay (modified Ellman method), eeAChE; type: biochemical; settings: for type of inhibition of eeAChE: Dixon plots; for IC50: mean ± SEM of three independent measurements, / = No activity, read-out: Enzyme Inhibition eeAChE IC50
Procedure: (§1) The activities of the ChEs were determined using a modification of the Ellman method adapted for microtiter plates, as described in [47]. Stock solutions of complexes 4, 5, 6, 7, 8 and 10, as well as of ligands L2 and L3 (1 mg/mL) were prepared in 100% MeOH, whereas stock solutions of complexes 2 and 3 (1 mg/mL) were prepared in 5% DMSO in deionised water. Positive control (1 mg/mL neostigmine bromide; Sigma-Aldrich, St. Louis, MO, USA) was also prepared in 100% MeOH. The stock solutions of the potential inhibitors and the positive and negative controls were added to the wells, and progressively diluted in 100 mM potassium phosphate buffer (pH 7.4) to the final volume of 50 μL. Then, 100 μL acetylthiocholine chloride (1 mM) and 5,5′-dithiobis-2-nitrobenzoic acid (0.5 mM) in 100 mM potassium phosphate buffer (pH 7.4) were added into the microtiter plate wells. Three ChEs were used as the enzyme sources: electric eel AChE (eeAChE); human recombinant AChE (hrAChE), and horse serum BChE (hsBChE) (all Sigma-Aldrich, St. Louis, MO, USA). These were dissolved in the same buffer to the final concentration of 0.0075 U/mL. Finally, 50 μL of each ChE solution was added into the microtiter plate wells to start the reaction, which was followed spectrophotometrically at 405 nm at 25 °C over 5 min using a kinetic microplate reader (Dynex Technologies Inc., Chantilly, VA, USA). The blank reactions without the inhibitors were run with the appropriate dilutions of the solvents in which the tested compounds were initially diluted (100% MeOH or 5% aqueous DMSO), and the readings were corrected according to the appropriate blanks. Each measurement was repeated at least three times. […] The data were analysed using the OriginPro software (OriginPro 2020, OriginLab Corporation, Northampton, MA, USA).

[7] = target: T2, human recombinant AChE (hrAChE); assay: Cholinesterase inhibition assay (modified Ellman method), hrAChE; type: biochemical; settings: for type of inhibition of hrAChE: Dixon plots; for IC50: mean ± SEM of three independent measurements, / = No activity, read-out: Enzyme Inhibition hrAChE IC50
Procedure: as §1

[8] = target: T3, horse serum BChE (hsBChE); assay: Cholinesterase inhibition assay (modified Ellman method), hsBChE; type: biochemical; settings: for type of inhibition of hsBChE: Dixon plots; for IC50: mean ± SEM of three independent measurements, / = No activity, read-out: Enzyme Inhibition hsBChE IC50
Procedure: as §1

horse liver GST (hlGST) [9] = assay: Glutathione S-transferase inhibition assay (Habig method), hlGST; type: biochemical; settings: for type of inhibition of hlGST: Dixon plots; for Ki: determined for compounds with IC50 < 33 μM, substrate 200, 400, 800 μM, read-out: Enzyme Inhibition hlGST Ki; for IC50: mean ± SEM of three independent measurements, / = No activity, read-out: Enzyme Inhibition hlGST IC50
Procedure: (§2) The activities of the GSTs were determined according to the method described by Habig et al. (1974) using a cell imaging multi-mode reader (Cytation 3; BioTek, Winooski, VT, USA). The stock solutions of inhibitors were prepared as described for the ChE inhibition assays. Then the stock solutions of the potential inhibitors and negative controls were added to the wells, and progressively diluted in 100 mM sodium phosphate buffer (pH 6.5) to the final volume of 50 μL. 1-Chloro-2,4-dinitrobenzene (Sigma-Aldrich, St. Louis, MO, USA) was dissolved in ethanol to 50 mM, and then diluted with 100 mM sodium phosphate buffer (pH 6.5) to a final concentration of 4 mM. This solution (50 μL) and 2 mM reduced glutathione (100 μL) in the same buffer were added into the microtiter plate wells. Two GSTs were used as the enzyme sources: horse liver GST (hlGST) and human placenta GST (hGST) (Sigma-Aldrich, St. Louis, MO, USA). These were dissolved in 100 mM sodium phosphate buffer (pH 6.5), and 50 μL of these enzyme solutions were added into the wells to start the reaction. The final enzyme concentration was 0.044 U/mL. The blank reactions without the inhibitors were run with the appropriate dilutions of the solvents in which the tested compounds were initially diluted (100% MeOH or 5% aqueous DMSO), and the readings were corrected according to the appropriate blanks. The reactions were followed spectrophotometrically at 340 nm at 25 °C over 4 min. Each measurement was repeated at least three times. […] The data were analysed using the OriginPro software (OriginPro 2020, OriginLab Corporation, Northampton, MA, USA).

[10] = target: T4, human placenta GST (hGST); assay: Glutathione S-transferase inhibition assay (Habig method), hGST; type: biochemical; settings: for type of inhibition of hGST: Dixon plots; for Ki: determined for compounds with IC50 < 33 μM, substrate 200, 400, 800 μM, read-out: Enzyme Inhibition hGST Ki; for IC50: mean ± SEM of three independent measurements, / = No activity, read-out: Enzyme Inhibition hGST IC50
Procedure: as §2

T1 sequence (O42275 24-633): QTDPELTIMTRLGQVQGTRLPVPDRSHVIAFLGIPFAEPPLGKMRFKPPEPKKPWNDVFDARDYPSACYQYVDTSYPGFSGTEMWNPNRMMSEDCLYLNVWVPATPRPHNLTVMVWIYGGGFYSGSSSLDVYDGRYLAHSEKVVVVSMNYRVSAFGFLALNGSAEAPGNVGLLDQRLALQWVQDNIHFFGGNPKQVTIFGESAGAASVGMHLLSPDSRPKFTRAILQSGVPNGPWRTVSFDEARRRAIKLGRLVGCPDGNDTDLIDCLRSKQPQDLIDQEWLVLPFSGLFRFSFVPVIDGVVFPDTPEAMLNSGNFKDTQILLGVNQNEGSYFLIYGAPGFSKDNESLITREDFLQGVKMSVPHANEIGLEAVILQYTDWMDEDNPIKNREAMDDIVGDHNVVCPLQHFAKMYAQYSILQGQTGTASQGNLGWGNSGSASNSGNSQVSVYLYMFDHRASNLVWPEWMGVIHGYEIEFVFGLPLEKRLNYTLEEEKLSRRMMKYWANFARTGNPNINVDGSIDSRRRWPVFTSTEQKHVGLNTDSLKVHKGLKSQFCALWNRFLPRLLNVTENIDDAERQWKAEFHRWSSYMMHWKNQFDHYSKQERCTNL
T3 sequence (P81908 whole entry): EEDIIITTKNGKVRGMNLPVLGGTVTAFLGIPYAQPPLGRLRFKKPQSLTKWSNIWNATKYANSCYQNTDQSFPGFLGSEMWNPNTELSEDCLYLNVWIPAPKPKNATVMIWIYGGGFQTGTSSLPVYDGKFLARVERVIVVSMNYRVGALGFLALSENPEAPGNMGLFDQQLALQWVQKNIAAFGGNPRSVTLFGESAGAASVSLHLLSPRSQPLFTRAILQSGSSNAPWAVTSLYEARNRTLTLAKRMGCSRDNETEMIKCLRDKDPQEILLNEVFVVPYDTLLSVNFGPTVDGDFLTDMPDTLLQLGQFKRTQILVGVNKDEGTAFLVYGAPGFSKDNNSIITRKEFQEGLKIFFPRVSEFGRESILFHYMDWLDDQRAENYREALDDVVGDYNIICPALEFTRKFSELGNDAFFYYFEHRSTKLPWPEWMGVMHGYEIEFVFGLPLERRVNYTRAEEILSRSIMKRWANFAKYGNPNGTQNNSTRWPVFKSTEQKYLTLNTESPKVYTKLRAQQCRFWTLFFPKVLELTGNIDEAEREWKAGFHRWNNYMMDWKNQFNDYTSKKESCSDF
T2 sequence (P22303 32-614): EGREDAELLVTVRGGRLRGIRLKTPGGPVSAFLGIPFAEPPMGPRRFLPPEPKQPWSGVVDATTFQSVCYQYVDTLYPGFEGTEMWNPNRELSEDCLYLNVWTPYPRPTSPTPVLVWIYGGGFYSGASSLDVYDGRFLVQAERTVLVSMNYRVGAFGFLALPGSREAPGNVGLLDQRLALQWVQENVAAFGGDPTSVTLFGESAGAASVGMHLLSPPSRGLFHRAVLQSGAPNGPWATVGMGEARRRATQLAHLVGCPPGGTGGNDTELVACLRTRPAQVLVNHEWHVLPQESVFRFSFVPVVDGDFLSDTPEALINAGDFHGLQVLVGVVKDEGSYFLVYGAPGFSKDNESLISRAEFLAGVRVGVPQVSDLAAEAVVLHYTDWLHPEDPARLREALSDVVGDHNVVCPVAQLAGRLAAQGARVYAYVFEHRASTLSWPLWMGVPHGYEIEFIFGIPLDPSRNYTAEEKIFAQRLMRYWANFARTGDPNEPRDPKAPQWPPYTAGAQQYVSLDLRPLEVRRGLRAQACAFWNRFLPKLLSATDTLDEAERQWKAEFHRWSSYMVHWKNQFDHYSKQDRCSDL
T4 sequence (P09211 2-210 limits assumed): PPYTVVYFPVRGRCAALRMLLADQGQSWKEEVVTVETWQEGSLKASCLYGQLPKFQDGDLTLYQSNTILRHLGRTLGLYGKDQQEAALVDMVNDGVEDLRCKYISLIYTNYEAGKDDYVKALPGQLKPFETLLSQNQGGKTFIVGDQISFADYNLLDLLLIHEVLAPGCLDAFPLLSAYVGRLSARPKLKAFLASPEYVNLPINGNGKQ

Row | Molecule | Ki (horse liver GST (hlGST) [9]) [µM] | IC50 [10] [µM] | IC50 [6] [µM] | IC50 [7] [µM] | IC50 [8] [µM] | IC50 (horse liver GST (hlGST) [9]) [µM] | other results
1 | Cc1ccc(C(C)C)cc1.Cc1ccc(C(C)C)cc1.[Cl][Ru][Cl].[Cl][Ru][Cl] [Precursor 9, dichloro(p-cymene) ruthenium(II) dimer [Ru(p-cymene)Cl2]2] | – | – | – | – | – | – | IC50 [1]: > 100 µM; IC50 [2]: > 100 µM; IC50 [3]: 32.7 ± 4.3 µM; IC50 (horse liver GST (hlGST) [4]): > 100 µM; IC50 [5]: > 100 µM
2 | [RuCym(L1)I] [Complex 3] | 1.6 | 16 ± 3 | – | – | – | – | type of inhibition of eeAChE [6]: reversible and competitive; type of inhibition of hrAChE [7]: reversible and competitive; type of inhibition of hsBChE [8]: reversible and competitive; type of inhibition of hlGST (horse liver GST (hlGST) [9]): reversible and competitive; type of inhibition of hGST [10]: reversible and competitive; Ki [10]: 8.6 µM
3 | [RuCym(L1)Cl] [Complex 1] | – | – | – | – | – | – | IC50 (horse liver GST (hlGST) [4]): 2.26 ± 0.5 µM; Ki (horse liver GST (hlGST) [4]; read-out: Enzyme Inhibition hlGST Ki): 10 µM; IC50 [5]: 45 ± 5.2 µM
4 | CCCCCCCCCCCCCCCCCC(=O)CC(=O)c1ccccc1 [Complex L3, 1-phenylicosane-1,3-dione, reference compound] | – | > 100 | > 100 | > 100 | > 100 | > 100 | –
5 | O=C(CC(=O)C(F)(F)F)c1ccccc1Br [Complex L2, 1-(2-bromophenyl)-4,4,4-trifluorobutane-1,3-dione, reference compound] | – | > 100 | > 100 | > 100 | > 100 | > 100 | –
6 | 1-hydroxypyridine-2(1H)-thione [Complex L1] | – | – | – | – | – | – | IC50 [1]: > 100 µM; IC50 [3]: > 100 µM; IC50 (horse liver GST (hlGST) [4]): > 100 µM; IC50 [5]: > 100 µM
7 | [RuCym(L1)Br] [Complex 2] | 0.79 | 4.64 ± 3.7 | – | – | – | – | type of inhibition of eeAChE [6]: reversible and competitive; type of inhibition of hrAChE [7]: reversible and competitive; type of inhibition of hsBChE [8]: reversible and competitive; type of inhibition of hlGST (horse liver GST (hlGST) [9]): reversible and competitive; type of inhibition of hGST [10]: reversible and competitive; Ki [10]: 4.08 µM
8 | [RuCym(L1)pta]PF6 [Complex 6] | – | – | – | – | – | > 100 | –
9 | Cc1ccc(C(C)C)cc1.FC(F)(F)C1=[O+][Ru-]([P+]23CN4CN(CN(C4)C2)C3)[O]C(c2ccccc2Br)=C1.F[P-](F)(F)(F)(F)F [Complex 7, [RuCym(L2)pta]PF6] | – | > 100 | > 100 | > 100 | 19.2 ± 1.5 | > 100 | type of inhibition of hsBChE [8]: reversible and competitive; Ki ([8]; determined for compounds with IC50 < 33 μM, substrate 0.125, 0.25, 0.5 mM, read-out: Enzyme Inhibition hsBChE Ki): 9.26 µM
10 | O=[C]=[Ru-2]12(=[C]=O)([O][n+]3ccccc3[S]1)[O][n+]1ccccc1[S]2 [Complex 8, [Ru(L1)2(CO)2]] | 0.85 | 16.6 ± 1.4 | > 100 | > 100 | > 100 | – | type of inhibition of hlGST (horse liver GST (hlGST) [9]): reversible and competitive; type of inhibition of hGST [10]: reversible and competitive; Ki [10]: 9.65 µM
11 | CN(C)C(=O)Oc1cccc([N+](C)(C)C)c1 [Neostigmine methylsulphate, reference compound] | – | > 100 | 5.98 ± 1 | – | 92.7 ± 2.2 | > 100 | –
12 | tricarbonyldichlororuthenium(II) dimer [Ru(CO)3Cl2]2 [Precursor 10, reference compound] | 2.93 | 97.7 ± 1 | – | – | – | 9.76 ± 0.4 | inhibition of hGST (in words) [10]: only weakly
